Source: patent US20040198663A1, “Method of treating cardiac ischemia by using erythropoietin” (priority 2003, published 2004)

Experiments:
[1] = system: hearts from chronically hypoxic infant rabbits; set-up: species or system New Zealand White rabbit
Excerpt: Animals. Rabbits used in the study received humane care in compliance with the “Guide for the Care and Use of Laboratory Animals” formulated by the National Research Council, 1996. Infant New Zealand White rabbits were maintained for 10 days in a normoxic (SaO2>95%) or hypoxic (SaO2<85%) environment as described in Baker et al., Circulation 99:1249-54 (1999).
Isolated heart perfusion. Isolated rabbit hearts were perfused with bicarbonate buffer at constant pressure in a retrograde manner and instrumented as described in Baker et al., Circulation 99:1249-54 (1999). Protein kinase inhibitors, potassium channel blockers or nitric oxide synthase inhibitors were added to this perfusate as needed. A 3-way tap, located immediately above the site of cannulation, allowed the entire perfusate to be diverted away from the heart to produce global, no-flow ischemia. Reperfusion was achieved by repositioning of the tap to allow perfusate to be delivered to the heart. Left and right ventricular function was monitored continuously throughout each experiment as described in Baker et al., Circulation 99:1249-54 (1999). End-diastolic pressure was initially set to 3 mmHg for 2 minutes. The balloons were then progressively inflated with a microsyringe to set end-diastolic pressures to 8 mmHg for the left ventricle and 4 mmHg for the right ventricle, with developed pressure and heart rate recorded during steady-state conditions. Coronary flow rate was measured throughout the experiment by timed collections of the coronary effluent from the right side of the heart into a graduated cylinder. Coronary flow rate was expressed as milliliters per minute per gram wet weight.
Resistance to myocardial ischemia. Hearts from infant rabbits were perfused with bicarbonate buffer, and biventricular function was monitored continuously throughout each experiment as described in Rafiee et al., Circulation 106:239-45 (2002). For concentration response studies, hearts were then perfused with erythropoietin (0.5-10.0 U/ml) for 15 minutes prior to 30 minutes ischemia and 35 minutes reperfusion. For mechanism studies with protein kinase inhibitors, potassium channel blockers or nitric oxide synthase inhibitors, hearts were perfused with drugs for 15 minutes alone followed by 15 minutes in combination with erythropoietin prior to ischemia. Hearts perfused with protein kinase inhibitors or potassium channel blockers alone in the absence of erythropoietin for 30 minutes prior to ischemia served as untreated controls for these studies. Recovery of post-ischemic left and right ventricular developed pressure was expressed as a percentage of its pre-drug, pre-ischemic value.
Hearts from 10 day old chronically hypoxic rabbits were treated with erythropoietin at a concentration of 1.0 U/ml.

[2] = system: adult male Sprague Dawley rat hearts; experiment: Coronary artery ligation model, isolated perfused heart, 30 min regional ischemia and 3 hours reperfusion; conditions: erythropoietin 1.0 U/ml 15 minutes prior to regional ischemia, vs control
Excerpt: Animals used in this study were adult male Sprague Dawley rats (200-350 g, generally 300 g). Animals were housed under standard conditions and allowed to feed ad lib. The Animal Care and Use Committee of the Medical College of Wisconsin approved all procedures performed in accordance with the regulations adopted by the National Institutes of Health.
A myocardial infarction was produced via the ligation of the left main artery using 6-0 prolene suture (See, e.g., Clements-Jewery et al., Br J Pharmacol. 135:807-815, 2002; Farkas et al., J Cardiovasc Pharmacol. 39,412-424, 2002). Rats were anesthetized with sodium pentobarbital (50 mg/kg i.p.). Heparin was then administered (150 U/kg i.p.) to prevent the formation of a thrombus in the coronary vasculature. The heart was then excised and perfused retrogradely with bicarbonate buffer at a pressure of 80 mmHg. (See e.g., Baker et al., Am J Physiol 278, H1395-H1400, 2000). The perfusate was not recirculated. […]
The heart was sectioned in 2 mm segments from apex to atrio-ventricular groove in a transverse fashion. Each segment was recorded and placed in formalin. […] The percentage of infarction of each slide was expressed as a percentage of the entire area of the heart.

[3] = chronically hypoxic hearts, EPO 1.0 U/ml for 15 min
[4] = chronically hypoxic hearts, EPO 1.0 U/ml, after 30 min ischemia

Substance: erythropoietin: Recombinant human erythropoietin, a glycoprotein hormone, obtained from Cell Science, Inc.
- adverse effect on ischemic myocardium [1]: did not appear to exert any adverse effect
- POST DRUG Coronary flow rate [1, 3]: 5 ± 1 mL/min/g
- POST DRUG Heart rate [1, 3]: 181 ± 16 beats/min
- POST DRUG Left ventricle developed pressure [1, 3]: 117 ± 15 mmHg
- POST DRUG Right ventricle developed pressure [1, 3]: 46 ± 8 mmHg
- REPERFUSION (35 min) Coronary flow rate [1, 4]: 6 ± 2 mL/min/g
- REPERFUSION (35 min) Heart rate [1, 4]: 204 ± 25 beats/min
- REPERFUSION (35 min) Left ventricle developed pressure [1, 4]: 77 ± 7 mmHg
- REPERFUSION (35 min) Right ventricle developed pressure [1, 4]: 42 ± 6 mmHg
- myocardial infarct size [2]: decrease in myocardial infarct size
